Drawing on patent US12398154B2, “Azaquinazoline pan-KRas inhibitors” (Mirati Therapeutics, Inc., priority 2020, dated 2025), this text covers IC50 for ten compounds.

Experiment [1] addresses T1, KRas G13D (Homo sapiens, UniProt P01116, G13D).
T1 construct: Biotinylated KRas (corresponding to amino acids 1-169, produced at Accelegan Inc.); biotin (biotinylated); purchased Accelegan Inc
The experiment can be described thus: KRas binding assay (TR-FRET displacement). A general note: TR-FRET usually uses a lanthanide donor and a delayed reading to cut background.
Description: (§1) The ability of a compound to bind to KRas was measured using a TR-FRET displacement assay. […] After a 60-minute incubation at room temperature, the reaction was measured using a BMG LABTECH CLARIO star Plus via TR-FRET. […] The POC values were fit to a 4-parameter IC50 equation and the IC50 value reported.

The target of experiment [2] is T2, KRas Q61H (Homo sapiens, UniProt P01116, Q61H).
T2 construct: Biotinylated KRas (corresponding to amino acids 1-169, produced at Accelegan Inc.); biotin (biotinylated); purchased Accelegan Inc
T2 sequence (P01116 1-169 isoform P01116-2 Q61H): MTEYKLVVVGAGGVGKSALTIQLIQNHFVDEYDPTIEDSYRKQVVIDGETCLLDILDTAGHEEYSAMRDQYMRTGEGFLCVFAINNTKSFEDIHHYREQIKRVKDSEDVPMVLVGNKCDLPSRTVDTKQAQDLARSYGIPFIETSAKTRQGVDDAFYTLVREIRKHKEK
The experiment can be described thus: KRas binding assay (TR-FRET displacement).
Description: as §1

Experiment [3] addresses KRas G12R (Homo sapiens, UniProt P01116, G12R). The experiment can be described thus: biochemical.
Description: as §1
Experiment [4] deals with KRas G12V (Homo sapiens, UniProt P01116, G12V). The experiment can be described thus: biochemical.
KRas G12V, sequence (P01116 1-169 isoform P01116-2 G12V): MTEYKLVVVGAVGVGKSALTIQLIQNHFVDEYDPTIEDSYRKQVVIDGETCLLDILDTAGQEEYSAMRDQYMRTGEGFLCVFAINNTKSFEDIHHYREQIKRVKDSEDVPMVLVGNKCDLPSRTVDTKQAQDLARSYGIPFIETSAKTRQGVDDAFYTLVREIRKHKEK
Description: as §1
In experiment [5] the target is KRas G12S (Homo sapiens, UniProt P01116, G12S). The experiment can be described thus: biochemical.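 Further: TR-FRET displacement binding to KRas, read after one hour incubation at room temperature, IC50 from four-parameter fit of percent of control.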
KRas G12S, sequence (P01116 1-169 isoform P01116-2 G12S): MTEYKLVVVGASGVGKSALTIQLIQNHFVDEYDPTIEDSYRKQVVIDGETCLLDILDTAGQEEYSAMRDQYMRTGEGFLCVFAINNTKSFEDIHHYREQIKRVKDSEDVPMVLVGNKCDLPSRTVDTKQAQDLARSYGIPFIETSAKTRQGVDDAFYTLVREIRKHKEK
Description: as §1
The target of experiment [6] is KRas WT (Homo sapiens, UniProt P01116). The experiment can be described thus: biochemical.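 Further: binding to KRas read as TR-FRET displacement after a one-hour room-temperature incubation, IC50 derived from percent-of-control values.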
KRas WT, sequence (P01116 1-169 isoform P01116-2): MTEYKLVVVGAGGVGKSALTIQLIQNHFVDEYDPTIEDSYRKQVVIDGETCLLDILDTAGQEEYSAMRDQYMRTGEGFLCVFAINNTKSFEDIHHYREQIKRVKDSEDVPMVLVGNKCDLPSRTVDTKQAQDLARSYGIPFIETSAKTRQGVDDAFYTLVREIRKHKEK
Description: as §1
For experiment [7], the target named is KRas G12C (Homo sapiens, UniProt P01116, G12C). The experiment can be described thus: biochemical.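 Further: binding to KRas assessed by TR-FRET displacement after one hour incubation at room temperature, potency fitted from percent-of-control values.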
KRas G12C, sequence (P01116 1-169 isoform P01116-2 G12C): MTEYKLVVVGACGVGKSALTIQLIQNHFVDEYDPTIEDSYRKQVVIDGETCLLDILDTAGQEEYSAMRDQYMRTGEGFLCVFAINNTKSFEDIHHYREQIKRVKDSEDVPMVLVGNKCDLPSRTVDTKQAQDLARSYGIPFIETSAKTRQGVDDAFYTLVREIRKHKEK
Description: as §1
Experiment [8] deals with KRas G12D (Homo sapiens, UniProt P01116, G12D). The experiment can be described thus: biochemical.
KRas G12D, sequence (P01116 1-169 isoform P01116-2 G12D): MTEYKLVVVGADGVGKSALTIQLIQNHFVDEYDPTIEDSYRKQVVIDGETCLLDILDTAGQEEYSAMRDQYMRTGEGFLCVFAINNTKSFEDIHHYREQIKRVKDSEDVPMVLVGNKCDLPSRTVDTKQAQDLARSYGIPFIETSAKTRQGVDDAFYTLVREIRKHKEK
Description: as §1
Experiment [9] has as its target KRas G12A (Homo sapiens, UniProt P01116, G12A). The experiment can be described thus: biochemical.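 Further: binding to KRas measured by TR-FRET displacement after one hour at room temperature, IC50 from a four-parameter fit of percent-of-control values.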
Description: as §1

The IC50 is the concentration needed to halve the response being measured. A lower IC50 goes with greater potency in that assay.

T1 sequence (P01116 1-169 isoform P01116-2 G13D): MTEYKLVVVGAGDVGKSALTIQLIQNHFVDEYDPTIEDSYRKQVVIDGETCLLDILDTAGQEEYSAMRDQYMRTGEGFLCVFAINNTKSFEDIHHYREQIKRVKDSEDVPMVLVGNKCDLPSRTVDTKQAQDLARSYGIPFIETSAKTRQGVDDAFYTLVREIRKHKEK
KRas G12A, sequence (P01116 1-169 isoform P01116-2 G12A): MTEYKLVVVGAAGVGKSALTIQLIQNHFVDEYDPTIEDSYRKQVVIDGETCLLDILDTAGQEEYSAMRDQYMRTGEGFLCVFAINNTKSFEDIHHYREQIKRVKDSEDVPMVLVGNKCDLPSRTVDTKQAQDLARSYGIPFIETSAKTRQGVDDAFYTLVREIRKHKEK
KRas G12R, sequence (P01116 1-169 isoform P01116-2 G12R): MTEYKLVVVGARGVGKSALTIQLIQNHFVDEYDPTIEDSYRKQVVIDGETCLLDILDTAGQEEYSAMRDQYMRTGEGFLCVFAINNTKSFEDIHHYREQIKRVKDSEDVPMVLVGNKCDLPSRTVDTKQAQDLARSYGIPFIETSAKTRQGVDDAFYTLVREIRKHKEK

On to `NC(=O)NC1CCN(c2nc(OCC34CCCN3CCC4)nc3c(F)c(-c4cccc5cccc(F)c45)ncc23)CC1` [Example 243, 1-(1-(8-fluoro-7-(8-fluoronaphthalen-1-yl)-2-((hexahydro-1H-pyrrolizin-7a-yl)methoxy)pyrido[4,3-d]pyrimidin-4-yl)piperidin-4-yl)urea], for which the IC50 in experiment [1] is 2960 nM; in [2], 3580 nM; in experiment [3], 1.06 µM; in [4], 2.19 µM; in [5], 1.81 µM; in experiment [6], 3.32 µM. For the same compound, the IC50 worked out at 1.15 µM in experiment [7], 25.4 µM in experiment [8] and 1.05 µM in [9].

`Fc1c(-c2cccc3cccc(F)c23)ncc2c(NCc3ncc4cc[nH]c4n3)nc(OCC34CCCN3CCC4)nc12` [Example 92, N-((7H-pyrrolo[2,3-d]pyrimidin-2-yl)methyl)-8-fluoro-7-(8-fluoronaphthalen-1-yl)-2-((hexahydro-1H-pyrrolizin-7a-yl)methoxy)pyrido[4,3-d]pyrimidin-4-amine]: the IC50 in experiment [1] is 8560 nM; in [2], 17300 nM; in experiment [3], 1.98 µM; in [4], 1.72 µM; in [5], 6.87 µM; in experiment [6], 8.8 µM. The half-maximal inhibitory concentration (IC50) amounted to 3.41 µM in experiment [7], 20.8 µM in [8] and 6.55 µM in experiment [9].

In the case of `OCC1CCCCN(c2nc(OCC34CCCN3CCC4)nc3c(F)c(-c4cccc5cccc(F)c45)ncc23)C1` (stereo not drawn) [Example 130, (1-(8-fluoro-7-(8-fluoronaphthalen-1-yl)-2-((tetrahydro-1H-pyrrolizin-7a(5H)-yl)methoxy)pyrido[4,3-d]pyrimidin-4-yl)azepan-3-yl)methanol], the 50% inhibitory concentration (IC50) in experiment [1] stood at 25800 nM; in experiment [2], 21900 nM; in [3], 18.3 µM; in experiment [4], 10.8 µM; in experiment [5] it was 14.2 µM; in experiment [6], 11.4 µM. Moreover, the IC50 in experiment [7] came out at 9.08 µM; in [8], 8.36 µM; in [9], 10.5 µM.

Consider `Fc1c(-c2cccc3cccc(F)c23)ncc2c(Nc3cnn(-c4ccncc4)c3)nc(OCC34CCCN3CCC4)nc12` [Example 210, 8-fluoro-7-(8-fluoronaphthalen-1-yl)-N-(1-(pyridin-4-yl)-1H-pyrazol-4-yl)-2-((tetrahydro-1H-pyrrolizin-7a(5H)-yl)methoxy)pyrido[4,3-d]pyrimidin-4-amine], for which the IC50 was at least 100000 nM in [1]; at least 100000 nM in experiment [2]; 37.8 µM in experiment [3]; 2.94 µM in [4]; at least 100 µM in experiment [5]; at least 100 µM in experiment [6]. Also, the IC50 was 43.3 µM in experiment [7], at least 100 µM in [8] and 66.5 µM in experiment [9].

On to `NS(=O)(=O)CC1CCCN(c2nc(OCC34CCCN3CCC4)nc3c(F)c(-c4cccc5cccc(F)c45)ncc23)C1` (stereo not drawn) [Example 221, 1-(1-(8-fluoro-7-(8-fluoronaphthalen-1-yl)-2-((tetrahydro-1H-pyrrolizin-7a(5H)-yl)methoxy)pyrido[4,3-d]pyrimidin-4-yl)piperidin-3-yl)methanesulfonamide], for which the IC50 stood at 308 nM in [1]; 231 nM in experiment [2]; 0.191 µM in experiment [3]; 0.556 µM in experiment [4]; 0.313 µM in experiment [5]; 0.284 µM in experiment [6]. In addition, the IC50 was 0.498 µM in [7], 0.586 µM in [8] and 0.271 µM in experiment [9].

`Fc1c(-c2cccc3cccc(F)c23)ncc2c(NCCCn3ccnn3)nc(OCC34CCCN3CCC4)nc12` [Example 118, N-(3-(1H-1,2,3-triazol-1-yl)propyl)-8-fluoro-7-(8-fluoronaphthalen-1-yl)-2-((tetrahydro-1H-pyrrolizin-7a(5H)-yl)methoxy)pyrido[4,3-d]pyrimidin-4-amine]: the IC50 in experiment [1] was found to be 8810 nM; in experiment [2] it was 14000 nM; in experiment [3], 11.3 µM; in experiment [4], 7.53 µM; in experiment [5], 6.24 µM; in [6], 8.55 µM. In addition, the IC50 in experiment [7] came to 7.45 µM; in experiment [8], 16.1 µM; in [9] it was 8.14 µM.

On to `OCc1cc2n(n1)CCCN(c1nc(OCC34CCCN3CCC4)nc3c(F)c(-c4cccc5cccc(F)c45)ncc13)C2` [Example 261, (5-(8-fluoro-7-(8-fluoronaphthalen-1-yl)-2-((hexahydro-1H-pyrrolizin-7a-yl)methoxy)pyrido[4,3-d]pyrimidin-4-yl)-5,6,7,8-tetrahydro-4H-pyrazolo[1,5-a][1,4]diazepin-2-yl)methanol], for which the 50% inhibitory concentration (IC50) worked out at 9610 nM in [1]; 10700 nM in experiment [2]; 2.61 µM in [3]; 3.98 µM in [4]; 2.32 µM in [5]; 7.1 µM in experiment [6]. Besides, the IC50 was determined as 2.39 µM in experiment [7], 1.61 µM in [8] and 5.74 µM in [9].

On to `CNC(=O)c1cc2n(n1)CCCN(c1nc(OCC34CCCN3CCC4)nc3c(F)c(-c4cccc5cccc(F)c45)ncc13)C2` [Example 259, 5-(8-fluoro-7-(8-fluoronaphthalen-1-yl)-2-((hexahydro-1H-pyrrolizin-7a-yl)methoxy)pyrido[4,3-d]pyrimidin-4-yl)-N-methyl-5,6,7,8-tetrahydro-4H-pyrazolo[1,5-a][1,4]diazepine-2-carboxamide], for which the IC50 in [1] came to 3300 nM; in experiment [2], 3180 nM; in experiment [3] it was 0.769 µM; in experiment [4], 0.38 µM; in experiment [5], 0.649 µM; in [6] it was 2.21 µM. In addition, the results for the IC50 in experiment [7], in experiment [8] and in [9] were 0.825 µM, 0.158 µM and 1.52 µM, respectively.

In the case of `O=C1CC(CNc2nc(OCC34CCCN3CCC4)nc3c(F)c(-c4cccc5cccc(F)c45)ncc23)C(=O)N1` (stereo not drawn) [Example 236, 3-(((8-fluoro-7-(8-fluoronaphthalen-1-yl)-2-((hexahydro-1H-pyrrolizin-7a-yl)methoxy)pyrido[4,3-d]pyrimidin-4-yl)amino)methyl)pyrrolidine-2,5-dione], the IC50 in experiment [1] was 2460 nM; in experiment [2] it was 4440 nM; in experiment [3], 3.35 µM; in [4] it was 0.623 µM; in [5] it was 0.897 µM; in [6], 3.5 µM. Besides, the values for the IC50 in experiment [7], in experiment [8] and in experiment [9] were 2.04 µM, 2.33 µM and 3.39 µM, respectively.

Consider `NS(=O)(=O)CC1CN(c2nc(OCC34CCCN3CCC4)nc3c(F)c(-c4cccc5cccc(F)c45)ncc23)CCO1` (stereo not drawn) [Example 249, 1-(4-(8-fluoro-7-(8-fluoronaphthalen-1-yl)-2-((tetrahydro-1H-pyrrolizin-7a(5H)-yl)methoxy)pyrido[4,3-d]pyrimidin-4-yl)morpholin-2-yl)methanesulfonamide], for which the IC50 came out at 1280 nM in experiment [1]; 808 nM in experiment [2]; 0.424 µM in experiment [3]; 1.29 µM in experiment [4]; 0.742 µM in experiment [5]; 1.06 µM in experiment [6]. Also, the IC50 in experiment [7] worked out at 0.979 µM; in experiment [8], 7.86 µM; in experiment [9], 0.981 µM.
